For one assay, the target named is GLP-1 Receptor (Homo sapiens, UniProt P43220). Put plainly: Functional assay, cAMP induction (luciferase reporter, HEK293) at GLP-1 receptor. It counts as cell-based.
A further assay deals with Glucagon Receptor (Homo sapiens, UniProt P47871). The assay can be described thus: cAMP inhibition: antagonism of glucagon-induced cAMP at glucagon receptor. It counts as cell-based. Also on record: expressed in transfected cells; host or cells: HEK293.
Setting [1] is: GLP-1 agonism EC50 (nM), Table 16.

Structures are written as SMILES. Like-named read-outs stand apart in the source and are kept apart here. Bridge positions count the residues as written; N and C are the ends. Square brackets hold non-standard residues; d marks the D form. Peptide text beside a SMILES is read from it. * marks the point of attachment. X1 = CC(C)CCC[C@@H](C)[C@H]1CC[C@H]2[C@@H]3CC=C4C[C@@H](OC(=O)CCOCCOCCOCCOCCOCCOCCOCCOCCOCCOCCOCCOCCNC(=O)CSCCC(=O)*)CC[C@]4(C)[C@H]3CC[C@]12C; PhLac = O=C(O)[C@@H](O)Cc1ccccc1

Chain of GLP-1 Receptor (P43220 24-463): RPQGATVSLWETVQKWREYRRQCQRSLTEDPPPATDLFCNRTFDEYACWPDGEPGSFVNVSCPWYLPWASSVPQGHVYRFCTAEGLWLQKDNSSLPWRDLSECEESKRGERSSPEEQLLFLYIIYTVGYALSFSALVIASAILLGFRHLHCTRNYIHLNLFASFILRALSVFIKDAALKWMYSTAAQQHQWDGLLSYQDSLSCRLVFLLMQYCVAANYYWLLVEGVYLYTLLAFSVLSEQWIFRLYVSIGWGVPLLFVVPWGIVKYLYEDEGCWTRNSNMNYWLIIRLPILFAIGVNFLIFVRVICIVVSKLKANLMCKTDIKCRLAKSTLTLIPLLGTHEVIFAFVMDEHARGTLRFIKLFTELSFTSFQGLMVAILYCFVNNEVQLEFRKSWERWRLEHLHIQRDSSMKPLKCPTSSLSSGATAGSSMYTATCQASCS
Chain of Glucagon Receptor (P47871 26-477): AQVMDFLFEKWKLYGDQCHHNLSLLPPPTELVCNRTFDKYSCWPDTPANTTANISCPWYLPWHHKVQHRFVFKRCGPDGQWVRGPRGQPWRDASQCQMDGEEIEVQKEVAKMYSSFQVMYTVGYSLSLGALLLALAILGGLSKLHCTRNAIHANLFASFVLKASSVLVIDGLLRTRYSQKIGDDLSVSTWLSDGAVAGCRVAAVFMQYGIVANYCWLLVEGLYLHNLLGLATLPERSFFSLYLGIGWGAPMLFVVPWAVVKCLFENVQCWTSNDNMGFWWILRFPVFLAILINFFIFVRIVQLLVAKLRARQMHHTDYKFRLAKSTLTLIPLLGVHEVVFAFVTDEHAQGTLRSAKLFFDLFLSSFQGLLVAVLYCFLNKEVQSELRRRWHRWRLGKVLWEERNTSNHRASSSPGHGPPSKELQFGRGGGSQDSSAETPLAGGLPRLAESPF

Regarding `CSCC[C@H](NC(=O)[C@H](CC(C)C)NC(=O)[C@H](Cc1c[nH]c2ccccc12)NC(=O)[C@H](CCC(N)=O)NC(=O)[C@@H](NC(=O)[C@H](Cc1ccccc1)NC(=O)[C@H](CC(=O)O)NC(=O)[C@@H]1CCCCNC(=O)CC[C@H](NC(=O)[C@H](CC(=O)O)NC(=O)[C@H](CC(C)C)NC(=O)[C@H](Cc2ccc(O)cc2)NC(=O)[C@H](CCCCN)NC(=O)[C@H](CO)NC(=O)[C@H](Cc2ccc(O)cc2)NC(=O)[C@H](CCC(=O)O)NC(=O)[C@H](CO)NC(=O)[C@@H](NC(=O)[C@@H](N)Cc2ccccc2)[C@@H](C)O)C(=O)N[C@@H](CCCNC(=N)N)C(=O)N[C@@H](CCCNC(=N)N)C(=O)N[C@@H](C)C(=O)N1)C(C)C)C(=O)N[C@@H](CC(N)=O)C(=O)N[C@H](C(=O)NCC(=O)N1CCC[C@H]1C(=O)N[C@@H](CO)C(=O)N[C@@H](CO)C(=O)NCC(=O)N[C@@H](C)C(=O)N1CCC[C@H]1C(=O)N1CCC[C@H]1C(=O)N1CCC[C@H]1C(=O)N[C@@H](CO)C(N)=O)[C@@H](C)O` [E9, E16K20(lactam)], the half-maximal effective concentration (EC50) – broadly, the concentration that produces a half-maximal response – at GLP-1 Receptor (setting [1]) was found to be 36.4 ± 3.5 nM. Besides, the IC50 on Glucagon Receptor (Glucagon antagonism IC50 (nM, inhibit 0.2-0.8 nM glucagon), Table 16, combined results of three assays) amounted to 42 ± 3.6 nM.

Consider `CSCC[C@H](NC(=O)[C@H](CC(C)C)NC(=O)[C@H](Cc1c[nH]c2ccccc12)NC(=O)[C@H](CCC(N)=O)NC(=O)[C@@H](NC(=O)[C@H](Cc1ccccc1)NC(=O)[C@H](CC(=O)O)NC(=O)[C@H](CCC(N)=O)NC(=O)[C@H](C)NC(=O)[C@H](CCCNC(=N)N)NC(=O)[C@H](CCCNC(=N)N)NC(=O)[C@@H]1CCC(=O)NCCCC[C@H](NC(=O)[C@H](CO)NC(=O)[C@H](Cc2ccc(O)cc2)NC(=O)[C@H](CCC(=O)O)NC(=O)[C@H](CO)NC(=O)[C@@H](NC(=O)[C@@H](N)Cc2ccccc2)[C@@H](C)O)C(=O)N[C@@H](Cc2ccc(O)cc2)C(=O)N[C@@H](CC(C)C)C(=O)N[C@@H](CC(=O)O)C(=O)N1)C(C)C)C(=O)N[C@@H](CC(N)=O)C(=O)N[C@H](C(=O)NCC(=O)N1CCC[C@H]1C(=O)N[C@@H](CO)C(=O)N[C@@H](CO)C(=O)NCC(=O)N[C@@H](C)C(=O)N1CCC[C@H]1C(=O)N1CCC[C@H]1C(=O)N1CCC[C@H]1C(=O)N[C@@H](CO)C(N)=O)[C@@H](C)O` [E9, K12E16(lactam)] (H-FTSEYSKYLDERRAQDFVQWLMNTGPSSGAPPPS-NH2; lactam 7-11; N-terminus assumed), for which it took 63 nM to reach a half-maximal effect on GLP-1 Receptor (GLP-1 (nM), Table 13, GLP-1 agonist activity) (EC50). The IC50 on Glucagon Receptor (Table 13, glucagon antagonist activity, read-out: Glu) worked out at 2010 nM.

At GLP-1 Receptor (GLP-1 agonism EC50 (nM), Table 23, standard deviation in ( )), `CSCC[C@H](NC(=O)[C@H](CC(C)C)NC(=O)[C@H](Cc1c[nH]c2ccccc12)NC(=O)[C@H](CCC(N)=O)NC(=O)[C@@H](NC(=O)[C@H](Cc1ccccc1)NC(=O)[C@H](CC(=O)O)NC(=O)[C@@H]1CCCCNC(=O)CC[C@H](NC(=O)[C@H](CC(=O)O)NC(=O)[C@H](CC(C)C)NC(=O)[C@H](Cc2ccc(O)cc2)NC(=O)[C@H](CCCCN)NC(=O)[C@H](CO)NC(=O)[C@H](Cc2ccc(O)cc2)NC(=O)[C@H](CC(=O)O)NC(=O)[C@H](CO)NC(=O)[C@@H](NC(=O)[C@@H](O)Cc2ccccc2)[C@@H](C)O)C(=O)N[C@@H](CCCNC(=N)N)C(=O)N[C@@H](CCCNC(=N)N)C(=O)N[C@@H](C)C(=O)N1)C(C)C)C(=O)N[C@@H](CC(=O)O)C(=O)N[C@H](C(=O)NCC(=O)N1CCC[C@H]1C(=O)N[C@@H](CO)C(=O)N[C@@H](CO)C(=O)NCC(=O)N[C@@H](C)C(=O)N1CCC[C@H]1C(=O)N1CCC[C@H]1C(=O)N1CCC[C@H]1C(=O)N[C@@H](CO)C(=O)N[C@@H](CCCCNC(=O)CCSCC(=O)NCCOCCOCCOCCOCCOCCOCCOCCOCCOCCOCCOCCOCCC(=O)O[C@H]1CC[C@@]2(C)C(=CC[C@H]3[C@@H]4CC[C@H]([C@H](C)CCCC(C)C)[C@@]4(C)CC[C@@H]32)C1)C(N)=O)[C@@H](C)O` [K40-chol G(6-40), [PLA6, E16K20(lactam), D28, K40(COCH2CH2S-Chol)]G(6-40) amide] (H-[PhLac]TSDYSKYLDERRAKDFVQWLMDTGPSSGAPPPSK(X1)-NH2; lactam 11-15) gave a half-maximal effective concentration (EC50) of 47 nM. For the same compound, at Glucagon Receptor (Glucagon antagonism IC50 (nM, inhibit 0.4 nM glucagon), Table 23, standard deviation in ( )), the IC50 stood at 312 nM.

`CSCC[C@H](NC(=O)[C@H](CC(C)C)NC(=O)[C@H](Cc1c[nH]c2ccccc12)NC(=O)[C@H](CCC(N)=O)NC(=O)[C@@H](NC(=O)[C@H](Cc1ccccc1)NC(=O)[C@H](CC(=O)O)NC(=O)[C@@H]1CCCCNC(=O)CC[C@H](NC(=O)[C@H](CC(=O)O)NC(=O)[C@H](CC(C)C)NC(=O)[C@H](Cc2ccc(O)cc2)NC(=O)[C@H](CCCCN)NC(=O)[C@H](CO)NC(=O)[C@H](Cc2ccc(O)cc2)NC(=O)[C@H](CCC(=O)O)NC(=O)[C@H](CO)NC(=O)[C@@H](NC(=O)[C@H](Cc2ccccc2)NC(=O)[C@@H](NC(=O)CNC(=O)[C@H](CCC(=O)O)NC(=O)[C@H](C)NC(=O)[C@@H](N)Cc2c[nH]cn2)[C@@H](C)O)[C@@H](C)O)C(=O)N[C@@H](CCCNC(=N)N)C(=O)N[C@@H](CCCNC(=N)N)C(=O)N[C@@H](C)C(=O)N1)C(C)C)C(=O)N[C@@H](CC(=O)O)C(=O)N[C@H](C(N)=O)[C@@H](C)O` [[A2E3, E16K20(Lactam), D28]G(1 ~ 29)] came in with an EC50 on GLP-1 Receptor (GLP-1 agonism EC50 (nM), Table 18) of 0.11 nM. Besides, at Glucagon Receptor (Glucagon antagonism IC50 (nM, inhibit 0.2-0.8 nM glucagon), Table 18), the IC50 came to 129 ± 106 nM. For the same compound, the “character of antagonism (partial antagonist, wrapped cell)” value at Glucagon Receptor (Table 18), on Glucagon Receptor (Table 19) and at Glucagon Receptor (Table 20) was “partial” throughout.

In turn, `CSCC[C@H](NC(=O)[C@H](CC(C)C)NC(=O)[C@H](Cc1c[nH]c2ccccc12)NC(=O)[C@H](CCC(N)=O)NC(=O)[C@@H](NC(=O)[C@H](Cc1ccccc1)NC(=O)[C@H](CC(=O)O)NC(=O)[C@H](CCCCN)NC(=O)[C@H](C)NC(=O)[C@H](CCCNC(=N)N)NC(=O)[C@H](CCCNC(=N)N)NC(=O)[C@H](CCC(=O)O)NC(=O)[C@H](CC(=O)O)NC(=O)[C@H](CC(C)C)NC(=O)[C@H](Cc1ccc(O)cc1)NC(=O)[C@H](CCCCN)NC(=O)[C@H](CO)NC(=O)[C@H](Cc1ccc(O)cc1)NC(=O)[C@H](CCC(=O)O)NC(=O)[C@H](CO)NC(=O)[C@@H](NC(=O)[C@@H](N)Cc1ccccc1)[C@@H](C)O)C(C)C)C(=O)N[C@@H](CC(N)=O)C(=O)N[C@H](C(=O)NCC(=O)N1CCC[C@H]1C(=O)N[C@@H](CO)C(=O)N[C@@H](CO)C(=O)NCC(=O)N[C@@H](C)C(=O)N1CCC[C@H]1C(=O)N1CCC[C@H]1C(=O)N1CCC[C@H]1C(=O)N[C@@H](CO)C(N)=O)[C@@H](C)O` [[E9, E16, K20] G(6-39)] displayed an EC50 on GLP-1 Receptor (setting [1]) of 1040 ± 11.9 nM. Also, the “Glucagon antagonism IC50(nM) (inhibit 0.2-0.8 nM glucagon)” value on Glucagon Receptor (Table 16, combined results of three assays) is recorded as “weak agonist”.

Compound `CSCC[C@H](NC(=O)[C@H](CC(C)C)NC(=O)[C@H](Cc1c[nH]c2ccccc12)NC(=O)[C@H](CCC(N)=O)NC(=O)[C@@H](NC(=O)[C@H](Cc1ccccc1)NC(=O)[C@H](CC(=O)O)NC(=O)[C@@H]1CCCCNC(=O)CC[C@H](NC(=O)[C@H](CC(=O)O)NC(=O)[C@H](CC(C)C)NC(=O)[C@H](Cc2ccc(O)cc2)NC(=O)[C@H](CCCCN)NC(=O)[C@H](CO)NC(=O)[C@H](Cc2ccc(O)cc2)NC(=O)[C@H](CCC(=O)O)NC(=O)[C@H](CO)NC(=O)[C@@H](NC(=O)[C@H](Cc2ccccc2)NC(=O)[C@@H](NC(=O)CN)[C@@H](C)O)[C@@H](C)O)C(=O)N[C@@H](CCCNC(=N)N)C(=O)N[C@@H](CCCNC(=N)N)C(=O)N[C@@H](C)C(=O)N1)C(C)C)C(=O)N[C@@H](CC(=O)O)C(=O)N[C@H](C(N)=O)[C@@H](C)O` [[E9, E16K20(lactam), D28]G(4 ~ 29)] (H-GTFTSEYSKYLDERRAKDFVQWLMDT-NH2; lactam 13-17; N-terminus assumed) came in with a concentration giving a half-maximal response (EC50) on GLP-1 Receptor (GLP-1 agonism EC50 (nM), Table 19) of 151 ± 8.8 nM. Further, the IC50 was 10 to 30 nM at Glucagon Receptor (Glucagon IC50 (nM), Table 14) and 12.7 ± 1.1 nM against Glucagon Receptor (Glucagon antagonism IC50 (nM, inhibit 0.8 nM glucagon), Table 19).

Source of the values: US8980830B2 (priority 2007, dated 2015).
